Substitutions are numbered along the chain they refer to.
Experiments:
Kv4.2 F289A = target: T1, Kv4.2 F289A (Homo sapiens, UniProt Q9NZV8, F289A); experiment: Patch clamp of Kv4.2 mutant F289A in HEK293T cells; type: cell-based
T1 construct: expressed in transfected cells; host or cells: HEK293T
T1 sequence (Q9NZV8 1-630 F289A): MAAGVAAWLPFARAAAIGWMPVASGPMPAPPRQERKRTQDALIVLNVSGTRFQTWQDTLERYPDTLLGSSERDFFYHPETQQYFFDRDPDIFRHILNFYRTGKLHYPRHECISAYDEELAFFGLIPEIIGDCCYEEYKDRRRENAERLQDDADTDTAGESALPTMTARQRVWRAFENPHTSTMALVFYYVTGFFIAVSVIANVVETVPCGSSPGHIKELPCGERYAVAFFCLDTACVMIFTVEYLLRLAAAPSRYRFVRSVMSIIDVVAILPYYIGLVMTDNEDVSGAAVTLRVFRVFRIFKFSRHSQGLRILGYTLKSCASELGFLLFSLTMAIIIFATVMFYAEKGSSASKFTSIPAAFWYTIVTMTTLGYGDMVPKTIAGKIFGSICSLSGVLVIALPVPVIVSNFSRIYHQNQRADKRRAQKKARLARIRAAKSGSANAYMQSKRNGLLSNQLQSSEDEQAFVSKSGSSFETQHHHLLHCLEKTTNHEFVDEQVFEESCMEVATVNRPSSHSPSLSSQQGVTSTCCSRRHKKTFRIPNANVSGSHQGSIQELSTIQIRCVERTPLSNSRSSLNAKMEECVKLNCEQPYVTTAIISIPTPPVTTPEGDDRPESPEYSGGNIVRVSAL
T1 sequence (Q9NS61 1-270 partner): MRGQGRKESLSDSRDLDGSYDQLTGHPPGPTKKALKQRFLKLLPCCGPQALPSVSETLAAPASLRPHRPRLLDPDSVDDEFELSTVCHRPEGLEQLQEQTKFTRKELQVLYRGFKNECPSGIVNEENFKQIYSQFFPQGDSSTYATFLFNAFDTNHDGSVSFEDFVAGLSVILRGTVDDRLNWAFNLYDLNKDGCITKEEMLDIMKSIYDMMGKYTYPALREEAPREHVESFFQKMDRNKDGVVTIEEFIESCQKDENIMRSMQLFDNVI
Experimental: (§1) Human embryonic kidney cell line (HEK293T) was obtained from Shanghai Institute of Cell Biology, Chinese Academy of Sciences (Shanghai, China) and maintained with 5% CO2 at 37°C in DMEM supplemented with 10% heat-inactivated fetal calf and serum (FBS), penicillin (100 U/ml), and streptomycin (100 μg/ml). The WT/mutant Kv4.2 plasmids were transiently transfected into HEK293T by Lipofectamine^TM 2000 Reagent (Invitrogen), and the KChIP2 subunits were co-transfected with Kv4.2.
(§2) The extracellular buffer and pipette solution for AP, Ito, and Kv4.2 were used as follows.
(§3) Kv4.2 current, The pipette solution contained (mM) 140 KF, 5 ATP-2Na, 1 EGTA, and 10 HEPEs (pH = 7.4). […] The steady-state activation of Kv4.2 was measured with the holding potential −80 mV and applied from −80 mV to 70 mV (10-mV increments). Steady-state inactivation of Kv4.2 channel measured with a series of a 300-ms depolarizing test potential of 10 mV followed a 1000-ms prepulse at potentials ranging from −120 to +70 mV with a 5-mV increment.
(§4) Data were analyzed using the clampfit (Axon) and Origin 9 software programs. […] The steady-state activation relationship was measured using Boltzmann function (f(V) = 1/{1 + exp[−(V−V1/2)/k]}^4). Steady-state inactivation was measured using the Boltzmann function f(V) = 1/{1 + exp[−(V − V1/2)/k]}.

kv4.1 = conditions: 5µM, X. laevis oocytes; cited from earlier work
From the text: Supplement Data_Sheet_1.docx, table 1: Supplementary Table 1.Activity of spider toxins on Kv2 and Kv4 channel subtypes Activities of spider toxins against different subtypes of Kv2 and Kv4 potassium channels are reported as IC50 (nanomolar) or as percentage of current inhibition at a single dose (nanomolar). Affinity (IC50) measurements | column: kv4.1

Kv4.2 V285A = target: T2, Kv4.2 V285A (Homo sapiens, UniProt Q9NZV8, V285A); experiment: Patch clamp of Kv4.2 mutant V285A in HEK293T cells; type: cell-based
T2 construct: expressed in transfected cells; host or cells: HEK293T
T2 sequence (Q9NZV8 1-630 V285A): T1 sequence (Q9NZV8 1-630 F289A) with V285A, A289F
T2 sequence (Q9NS61 1-270 partner): T1 sequence (Q9NS61 1-270 partner)
Experimental: as §1, §2, §3, §4

Ito1 current of NRVMs = experiment: Whole-cell patch clamp of Ito1 current in neonatal rat ventricular myocytes; type: cell-based; conditions: 100 nM JZTX-V, at 30 mV, holding potential −40 mV, N = 4, mean ± SEM
From the text: Neonatal rat ventricular myocytes cells were obtained from ventricles of neonatal Sprague–Dawley rats as previously reported ([Sung et al., 2012]; [Yan et al., 2018]). SD rats (Hunan SJA Laboratory Animal Co., Ltd., Changsha, China) were used according to the guidelines of the National Institutes of Health for Care and Use of Laboratory Animals. The experiments were approved by the Animal Care and Use Committee of Hunan Normal University.
Ito currents, The Ca^2+-currents blocker CdCl2 (200-μmol/L) were used in external solutions. To generate Ito1 current, cells were held at −40 mV to inactivate the fast Na^+ current and then stepped to potentials of −40 mV to +60 mV in 10-mV increments.
All data points are shown as mean SEM.

CC[C@H](C)[C@H](NC(=O)[C@@H](NC(=O)[C@H](CCCCN)NC(=O)[C@H](CCCNC(=N)N)NC(=O)[C@@H]1CSSC[C@@H]2NC(=O)[C@H](C)NC(=O)[C@H](CCCNC(=N)N)NC(=O)[C@H](CCCCN)NC(=O)[C@H](CO)NC(=O)[C@H](CC(=O)O)NC(=O)[C@@H]3CSSC[C@H](NC(=O)[C@H](CCCNC(=N)N)NC(=O)[C@H](CC(C)C)NC(=O)CNC(=O)[C@H](CCC(=O)O)NC(=O)[C@H](CSSC[C@H](NC(=O)[C@@H](N)Cc4ccc(O)cc4)C(=O)N[C@@H](CCC(N)=O)C(=O)N[C@@H](CCCCN)C(=O)N[C@@H](Cc4c[nH]c5ccccc45)C(=O)N[C@@H](CCSC)C(=O)N[C@@H](Cc4c[nH]c5ccccc45)C(=O)N[C@@H]([C@@H](C)O)C(=O)N3)NC2=O)C(=O)N[C@@H](CCCCN)C(=O)N[C@@H](CC(C)C)C(=O)N[C@@H](Cc2c[nH]c3ccccc23)C(=O)N1)[C@@H](C)CC)C(=O)O [JZTX-V, Jingzhaotoxin-V]
reduction of sensitivity to the toxin vs WT Kv4.2 (Kv4.2 F289A): ~11 fold | percentage of current inhibition kv4.1 (kv4.1): 25% (5µM) O | reduction of sensitivity to the toxin vs WT Kv4.2 (Kv4.2 V285A): ~7 fold | inhibition of Ito1 current of NRVMs (Ito1 current of NRVMs): 78 ± 4.32%

Source: paper PMC6476928 (Frontiers in Pharmacology, 2019)
